Consider one molecule from article PMC12156367, “Synthesis and Biological Evaluation of Seco-Coumarin/Furoxan Hybrids as Potent Anti-Tumor Agents to Overcome Multidrug Resistance via Multiple Mechanisms” (Molecules, 2025).

The subject of data set [1] is MCF-7 (human breast cancer cell line). In words: In vitro antiproliferative assay (MTT, 48 h), MCF-7. The settings on record: MCF7, mean of three determinations. The class given is cell-based. The text has this: (§1) The MDA-MB-468 cell line was procured from the Cell Bank of the Chinese Academy of Sciences. The MCF-7, MCF-7/ADR, MCF-10A, and MDA-MB-231 cell lines were kindly provided by Professor Xianyi Sha (Fudan University, Shanghai, China). The HUVEC cells were kindly provided by Associate Professor Hulie Zeng (Fudan University, Shanghai, China). The MDA-MB-468, MDA-MB-231, MCF-7, MCF-10A, and HUVEC cells were cultivated in DMEM (Service Biotechnology, China) supplemented with 10% FBS (Capricorn Scientific, Germany) and 1% penicillin-streptomycin (Meilunbio, Dalian, China). For the MCF-7/ADR cells, they were cultured in RPMI-1640 (Service Biotechnology, Wuhan, China), containing 10% FBS and 1% penicillin-streptomycin. […]
(§2) Following harvest during logarithmic growth, cells were plated in 96-well culture plates at an initial density of 5000 cells per well. […] The OD value at 570nm was measured using a microplate reader (Thermo Fisher, Waltham, MA, USA). Cell proliferation inhibition was determined using the following formula:Inhibition (%) = [(ODDMSO − ODcompd.)/(ODDMSO − ODblank)] × 100
(§3) GraphPad Prism software 9 was used to calculate the IC50 values. […] For instance, in the cell experiment, we recorded the cell viability values at different drug concentrations. […]

The test system of data set [2] is HUVEC (human umbilical vein endothelial cell lines). In words: Cytotoxicity screen in HUVEC. To be noted: 500 nM concentration. The class given is cell-based. An excerpt:
The MDA-MB-468 cell line was procured from the Cell Bank of the Chinese Academy of Sciences. The MCF-7, MCF-7/ADR, MCF-10A, and MDA-MB-231 cell lines were kindly provided by Professor Xianyi Sha (Fudan University, Shanghai, China). The HUVEC cells were kindly provided by Associate Professor Hulie Zeng (Fudan University, Shanghai, China). The MDA-MB-468, MDA-MB-231, MCF-7, MCF-10A, and HUVEC cells were cultivated in DMEM (Service Biotechnology, China) supplemented with 10% FBS (Capricorn Scientific, Germany) and 1% penicillin-streptomycin (Meilunbio, Dalian, China). For the MCF-7/ADR cells, they were cultured in RPMI-1640 (Service Biotechnology, Wuhan, China), containing 10% FBS and 1% penicillin-streptomycin. Additionally, 500 ng/mL of doxorubicin (Sigma-Aldrich, Saint Louis, MO, USA) was incorporated into the RPMI-1640 culture medium to keep drug resistance. All cell lines were cultured in a humidified incubator at 37 °C with a 5% CO2 atmosphere.
Following harvest during logarithmic growth, cells were plated in 96-well culture plates at an initial density of 5000 cells per well. Incubate the plate overnight at 37 °C to allow the cells to adhere. […] The OD value at 570nm was measured using a microplate reader (Thermo Fisher, Waltham, MA, USA). Cell proliferation inhibition was determined using the following formula:Inhibition (%) = [(ODDMSO − ODcompd.)/(ODDMSO − ODblank)] × 100 […]

Another data set relates to MCF-7/ADR. In words: Cell apoptosis analysis (Annexin V-FITC/PI flow cytometry). The data set is classed as cell-based, human. To be noted: 9e 10 nM, control 5.53%. The method, then:
MCF-7/ADR (2 × 10^5 cells/well) were plated in 6-well plates and cultured overnight. Following 24 h treatment with specified concentrations of 9e, cells were harvested and analyzed by Annexin V-FITC apoptosis detection kit (Beyotime, Shanghai, China). Cell populations were subsequently analyzed by flow cytometry (Beckman, Brea, CA, USA).

The test system of data set [3] is human normal mammary epithelial cell lines MCF-10A. In words: Cytotoxicity in normal mammary epithelial cells (MTT). The class given is cell-based. The settings on record: normal mammary epithelial cell line.
Description: as §1, §2, §3

Data set [4] in a line: Solubility experiment (HPLC) in water/acetonitrile. The data set is classed as physicochemical. The settings on record: in water/acetonitrile (table title). The method, then:
Wavelength: 254 nm; flow rate: 1.0 mL/min; column temperature: 25 °C. Mobile phase: Phase A: water, Phase B: acetonitrile (Table 5).
Compounds were dissolved in chromatographic-grade acetonitrile and diluted to concentrations of 200, 100, 50, 25, 12.5, and 6.25 µg/mL. A standard curve was plotted using the peak area under the curve (AUC) versus concentration. […] The supernatant was filtered through an ultrafiltration membrane and then subjected to HPLC analysis. The solubility of the target compound was determined by substituting the AUC of the test compound into the standard curve. Each measurement was performed in triplicate.

With `COc1ccc(CCC(=O)c2ccc(OCCOc3no[n+]([O-])c3S(=O)(=O)c3ccccc3)cc2OC)cc1` [Compound 9e, 4-(2-(3-methoxy-4-(3-(4-methoxyphenyl)propanoyl)phenoxy)ethoxy)-3-(phenylsulfonyl)-1,2,5-oxadiazole 2-oxide], the IC50 in data set [1] was 4.23 µM; in data set [3], 13.2 µM. Further, the “cell survival probability in HUVEC” value in data set [2] is “over 90%”. In addition, in the data set with MCF-7/ADR, the “apoptosis (Q2+Q3)” value came out at 37.1%. In data set [4], this molecule showed a Solubility of 56.4 ± 5.5%.
